Experimental data from patent US20160311788A1, “Antifouling Compounds And Use Thereof” (National University of Singapore, priority 2008, published 2016).
In brackets after ≈: the same amount, converted by molar mass.

What was measured:
[1] = tested on: Pseudomonas aeruginosa (strain LMG 12228; ATCC 15692); experiment: disc inhibition assay, REF 3; format: cell-based; conditions: REF 3, 30 ug
Experimental: (§1) 13 strains of marine bacteria were isolated from fouling communities located in the coastal waters around Singapore. These were characterized in earlier studies and reported in Teo et al. (U.S. patent application Ser. No. 11/265,833) and Choong et al (in prep). In addition, four reference bacterial strains were added tested: Escherichia coli (Strain K12, ATCC 15222), E. coli (strain DH5a), Pseudomonas aeruginosa (strain LMG 12228; ATCC 15692) and P. putida (strain KT2440; ATCC 47054). All the bacteria were also tested against five antibiotics: ampicillin (AMP), tetracycline (TETR), erythromycin (ERY), chloramphenicol (CHL) and streptomycin (STREP).
(§2) Disks comprising the compounds to be tested were prepared as follows. The antibacterial assay, the pure compounds were made up to a concentration of 2 mgml^−1 in DMSO. 25 μl of the stock was pipetted onto each 6 mm sterile disc (Macherey-Nagel #484000) to obtain 50 μg of compound per disc. Equivalent volume of DMSO was used inoculated for the control.
(§3) For all disk inhibition assays, bacterial cultures were grown in marine broth (Pronadisa #1217.00). Sterile swabs dipped into the cultures were used to inoculate Marine Agar plates with a bacterial lawn by smearing the culture over the surface. After inoculating the plates, discs with antibiotics, pharmaceuticals or control blanks were placed on each plate. Each concentration of antibiotic or pharmaceutical was tested with two replicates. After the disks were placed on the agar surface, plates were incubated overnight in the dark at 35° C. After incubation, plates were examined for zones of inhibition or clearing around control and treated disks. The diameter of any zone of clearing or inhibition was measured using Vernier calipers. There were two replicates per treatment, and the average was taken. There was no zone of inhibition around the control blanks in all the assays.

[2] = tested on: marine bacteria strain S29; experiment: disc inhibition assay, strain S29; format: cell-based, Bacillus hwajinpoensis
Outline: (§4)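 50 μg compound/6 mm disc (from 2 mg/ml DMSO stock); DMSO blank disc control. Lawn swabbed on Marine Agar from marine broth culture. Overnight, 35° C, dark. Readout: inhibition zone diameter (calipers), mean of 2 replicates.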

[3] = tested on: Escherichia coli (Strain K12; ATCC 15222); experiment: disc inhibition assay, REF 1; format: cell-based; conditions: REF 1, 30 ug
Experimental: as §1, §2, §3

[4] = tested on: marine bacteria strain S1; experiment: disc inhibition assay, strain S1; format: cell-based, Rhodovulum iodosum
Outline: as §4

[5] = tested on: marine bacteria strain S4; experiment: disc inhibition assay, strain S4; format: cell-based, Bacillus algicola; conditions: Guptibacillus algicola, S4, 24 h
Outline: as §4

[6] = tested on: marine bacteria strain S27; experiment: disc inhibition assay, strain S27; format: cell-based, Tenacibaculum lutimaris; conditions: Tenacibaculum lutimaris, S27, 24 h
Outline: as §4

[7] = tested on: marine bacteria strain S9; experiment: disc inhibition assay, strain S9; format: cell-based, Bacillus algicola; conditions: Guptibacillus algicola, S9, 24 h
Outline: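 Compounds were dissolved at 2 mg/ml in DMSO (stock) and 50 μg loaded per 6 mm disc, with DMSO-only discs as control. Discs went onto Marine Agar lawns swabbed from marine broth cultures, plates were incubated overnight in the dark at 35° C, and clearing-zone diameter was measured by calipers, averaged over two replicates.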

[8] = tested on: marine bacteria strain S3; experiment: disc inhibition assay, strain S3; format: cell-based, Erythrobacter aquimaris; conditions: Qipengyuania aquimaris, S3, 24 h
Outline: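 Antibacterial susceptibility was measured by agar disc diffusion. Compounds dissolved in DMSO were applied to 6 mm sterile discs and laid on Marine Agar lawns of a Singapore coastal marine bacterium cultured in marine broth. After overnight dark incubation at 35° C, clearing zone diameters were measured with Vernier calipers, and the two replicates were averaged.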

[9] = tested on: marine bacteria strain S28; experiment: disc inhibition assay, strain S28; format: cell-based, Arthrobacter protophormial; conditions: Arthrobacter, S28, 24 h
Outline: as §4

[10] = tested on: Escherichia coli (Strain DH5a); experiment: disc inhibition assay, REF 2; format: cell-based; conditions: REF 2, 30 ug
Experimental: as §1, §2, §3

[11] = tested on: Pseudomonas putida (Strain KT2440; BCRC 10459); experiment: disc inhibition assay, REF 4; format: cell-based; conditions: REF 4, 30 ug
Experimental: as §1, §2, §3

[12] = tested on: marine bacteria strain S16; experiment: disc inhibition assay, strain S16; format: cell-based, Pseudoalteromonas piscicida
Outline: as §4

[13] = tested on: marine bacteria strain S30; experiment: disc inhibition assay, strain S30; format: cell-based, Bacillus borophilicus
Outline: as §4

[14] = tested on: marine bacteria strain S18; experiment: disc inhibition assay, strain S18; format: cell-based, Microbacterium esteraromaticum; conditions: Microbacterium esteraromaticum, S18, 24 h
[15] = tested on: marine bacteria strain S17; experiment: disc inhibition assay, strain S17; format: cell-based, Gordonia terrae; conditions: Gordonia terrae, S17, 24 h
Outline: as §4

[16] = tested on: marine bacteria strain S10; experiment: disc inhibition assay, strain S10; format: cell-based, Halobacillus trueperi; conditions: Halobacillus trueperi, S10, 24 h
Outline: as §4

[17] = tested on: marine bacteria strain S14; experiment: disc inhibition assay, strain S14; format: cell-based, Vibrio probioticus
[18] = tested on: Stage II nauplii of Balanus amphitrite; experiment: barnacle toxicity assay; format: in vivo
Experimental: (§5) Pure compounds were suspended in DMSO and sonicated to obtain a stock solution of 50 mg ml^−1 in DMSO. This stock solution is stored at −20° C. in 4 ml amber screw cap vials. For the bioassays, a small volume of stock solution was added to 1 μm filtered seawater in a glass scintillation vial. This suspension was then sonicated around 10 minutes. Serial dilutions were generated to the required range of concentrations. Serial dilution of the equivalent amounts of DMSO in seawater was used as the control.
(§6) The barnacle bioassay method used follows from the method first introduced by Rittschof et al. (1992), and subsequently by other authors (Willemsen et al., 1998). This method is now standard practice for many antifouling screening of novel compounds.
Toxicity assays were modified from Rittschof et al. (1992). Stage II naupliar larvae used in tests were obtained from Balanus amphitrite adults collected from inter-tidal rock walls at Kranji mangrove, Singapore. Larvae were collected from a container of adults by attraction to a point source of light and transferred to 500 ml of fresh seawater. Next, larvae were re-concentrated with a fiber optic light and added to assays.
Duplicate assays were conducted in 2 ml glass vials (La Pha Pack® PN 11-14-0544) in 1 ml of filtered seawater for 22 to 24 hours. The assays were repeated for confirmation. There were two sets of controls, a blank control consisting of 3 tubes of seawater only, and DMSO control consisting of the equivalent dilution series with DMSO without compound). For the compounds, there were 3 tubes of each for each test concentration. The assay was initiated by addition of barnacle naupliar in 50 μl of seawater. After 22 to 24 hours of incubation at 25-27° C. solutions containing test animals were transferred to a Bogorov tray and scored as living or dead. Moribund larvae were scored as dead. Results were confirmed by repeating the assay. Data were combined and the concentration that caused 50% mortality (LD50) was calculated by probit analysis using a basic computer program (Libermann, 1983). If data were not appropriate for probit analysis, the LD50 was estimated from graphed data.

[19] = tested on: cyprids of Balanus amphitrite; experiment: barnacle settlement assay; format: in vivo
Experimental: as §5, §6
Barnacle settlement assays were based on methodology from Rittschof et al. (1992). Barnacle larvae from field-collected adults were reared on an algal mixture of 1:1 v/v of Tetraselmis suecica and Chaetoceros muelleri at 25° C., at approximately 5×10^5 cells per ml density. On this regime, larvae metamorphose to cyprids in 5 days. These cyprids were aged at 4° C. for 2-3 days, and 45-70% settlement after 24 hours (Willemsen et al., 1998).
Settlement tests were conducted in 7 ml neutral glass vials (Samco® T1 03N1) 34 mm by 23 mm diameter, with 20-40 cyprids per well. Test solutions were made up to twice the required final concentration. 0.5 ml of test solution was added into each well, and cyprids were transferred into each well in 0.5 ml of seawater. Assays were done in triplicate. As before, there were two sets of controls, a blank control consisting 3 tubes of seawater only, and DMSO control consisting of the equivalent dilution series with DMSO without compound. After 24 hours, larvae that had attached and metamorphosed were enumerated and the result expressed as percentage settlement. Larvae not attached were scored as not settled. The assays were repeated and the concentration that caused 50% settlement inhibition (ED50) was determined by pro bit analysis using a basic computer program (Lieberman, 1983), or by estimation from graphed data.

## O=C(N[C@H](CO)[C@H](O)c1ccc([N+](=O)[O-])cc1)C(Cl)Cl [CHL, Chloramphenicol, reference compound]
[1]
  zone of inhibition: ++ (5-10 mm zone was observed.)
[2]; Guptibacillus hwajinpoensis, S29, 24 h, strain 29, 30 ug
  zone of inhibition at 30 µg/disc: > 10 mm
[3]
  zone of inhibition: ++ (5-10 mm zone was observed.)
[4]; Rhodovulum iodosum, S1, strain 1, 30 ug
  zone of inhibition at 30 µg/disc: 5 to 10 mm
[5]; strain 4, 30 ug
  zone of inhibition at 30 µg/disc: > 10 mm
[6]; strain 27, 30 ug
  zone of inhibition at 30 µg/disc: > 10 mm
[7]; strain 9, 30 ug
  zone of inhibition at 30 µg/disc: > 10 mm
[8]; strain 3, 30 ug
  zone of inhibition at 30 µg/disc: > 10 mm
[9]; strain 28, 30 ug
  zone of inhibition at 30 µg/disc: > 10 mm
[10]
  zone of inhibition: ++ (5-10 mm zone was observed.)
[11]
  zone of inhibition: ++ (5-10 mm zone was observed.)
[12]; Pseudoalteromonas piscicida, S16, 24 h, strain 16, 30 ug
  zone of inhibition at 30 µg/disc: 5 to 10 mm
[13]; Bacillus, S30, 24 h, strain 30, 30 ug
  zone of inhibition at 30 µg/disc: 5 to 10 mm
[14]; strain 18, 30 ug
  zone of inhibition at 30 µg/disc: 5 to 10 mm
[15]; strain 17, 30 ug
  zone of inhibition at 30 µg/disc: > 10 mm
[16]; strain 10, 30 ug
  zone of inhibition at 30 µg/disc: > 10 mm
[17]; Vibrio, S14, 24 h
  zone of inhibition at 30 µg/disc: 5 to 10 mm

## O=C(C(c1ccccc1)c1ccccc1)N1CCCCC1 [Compound 4.1, 2,2-Diphenyl-1-(piperidin-1-yl)ethanone]
[2]; strain 29, 50 μg of compound per disc
  zone of inhibition: −
[4]; strain 1, 50 μg of compound per disc
  zone of inhibition: −
[18]; Table 3(a), concentration that caused 50% mortality, 22 to 24 hours, Stage II nauplii
  LD50: > 50 µg/mL
[18]; in vivo
  naupliar toxicity in words: no observable naupliar toxicity
[5]; strain 4, 50 μg of compound per disc, read-out: zone of inhibition
  zone of inhibition at 50 µg/disc: 2 to 5 mm
[6]; strain 27, 50 μg of compound per disc, read-out: zone of inhibition
  zone of inhibition at 50 µg/disc: 2 to 5 mm
[19]
  anti-settlement activity in words: displayed anti-settlement activity
[19]; Amphibalanus amphitrite, 24 h, Table 3(a), concentration that caused 50% settlement inhibition, 24 hours, cyprids, read-out: ED50 (the source's name)
  IC50: 2.35 µg/mL (≈ 8.41 µM)
[7]; strain 9, 50 μg of compound per disc, read-out: zone of inhibition
  zone of inhibition at 50 µg/disc: 2 to 5 mm
[8]; strain 3, 50 μg of compound per disc, read-out: zone of inhibition
  zone of inhibition at 50 µg/disc: 5 to 10 mm
[9]; strain 28, 50 μg of compound per disc, read-out: zone of inhibition
  zone of inhibition at 50 µg/disc: 2 to 5 mm
[12]; strain 16, 50 μg of compound per disc
  zone of inhibition: −
[13]; strain 30, 50 μg of compound per disc
  zone of inhibition: −
[14]; strain 18, 50 μg of compound per disc, read-out: zone of inhibition
  zone of inhibition at 50 µg/disc: 2 to 5 mm
[15]; strain 17, 50 μg of compound per disc, read-out: zone of inhibition
  zone of inhibition at 50 µg/disc: 2 to 5 mm
[16]; strain 10, 50 μg of compound per disc, read-out: zone of inhibition
  zone of inhibition at 50 µg/disc: 2 to 5 mm
[17]; strain 14, 50 μg of compound per disc
  zone of inhibition: −
